# Reference: paper PMC7554048, “FBI-1 enhanced the resistance of triple-negative breast cancer cells to chemotherapeutic agents via the miR-30c/PXR axis” (Cell Death & Disease, 2020)
# Assay: Olaparib sustained in cultured TNBC cells, LC-MS/MS (half-life)
# Type: in vitro ADME, human
# Conditions: TNBC cells (PDC No. 3 and 9) overexpressing FBI-1
# Description: TNBC cells transfected with plasmids were used for the pharmacokinetic experiments to examine the amount of olaparib sustained in the cells. For the cell-based experiments, cells were treated with 1 μmol/L concentration of olaparib for 12 h[33]. Then, cells were harvested at indicated time-points. For the animal experiments, TNBC cells were injected into the subcutaneous position to form subcutaneous tumor tissues. After 2–3 weeks’ growth, when the tumor volumes reached 1500–2000 mm^3, the solution of olaparib was injected into the subcutaneous tumors. Then, the tumor tissues were harvested at indicated times[34],[35]. The olaparib in cells or tumor tissues was extracted by acetonitrile (ACN), and the amount of olaparib sustained in cells or tumor tissues at each time point was determined by liquid chromatography–mass spectrometry/mass spectrometry (LC-MS/MS), following the methods established by Krens et al.[36]. The sustaining rates of olaparib were calculated as (the amount of olaparib at each time)/(the amount of olaparib at 0-time) × 100%. The sustaining curves or the half-time life (t1/2) of olaparib was obtained by the sustained rates of olaparib.
structure (smiles),measurement,value
CC(=O)N1CCN(c2ccc(OCC3COC(Cn4ccnc4)(c4ccc(Cl)cc4Cl)O3)cc2)CC1 (stereo not shown) [ketoconazole],effect of ketoconazole on FBI-1-accelerated elimination or clearance of olaparib,almost blocked the effect of FBI-1 on olaparib in TNBC cells
